# Assay results from ChEMBL document CHEMBL3882390, “Method for selectively inhibiting ACAT1 in the treatment of neurodegenerative diseases” (2014).
# Activity calls are given as the source filed them. The calls are words filed in the database; no cut-off is given here.
# Key:
# Mus musculus [1] = assay: Reduction in accumulation of amyloid plaque in C57BL/6 mouse overexpressing human APP751 with London (V717I) and Swedish ([…]) mutation administered as pellets into bloodstream; assay type: functional
# Mus musculus [2] = assay: Reduction in brain cholesteryl esters in C57BL/6 mouse overexpressing human APP751 with London (V717I) and Swedish ([…]) mutation administered as pellets into bloodstream; assay type: functional
# Mus musculus [3] = assay: Reduction in membrane/insoluble amyloid beta level in C57BL/6 mouse overexpressing human APP751 with London (V717I) and Swedish ([…]) mutation administered as pellets into bloodstream; assay type: functional
# Mus musculus [4] = assay: Reduction in soluble amyloid beta42 in brain homogenates of C57BL/6 mouse overexpressing human APP751 with London (V717I) and Swedish ([…]) mutation administered as pellets into bloodstream; assay type: functional
# [5] = biological target: T1, Sterol O-acyltransferase 2 (Chlorocebus aethiops, UniProt O77759); assay: Inhibition of African green monkey ACAT2 expressed in CHO cells assessed as reduction in [14C]CE formation using [1-14C]oleoyl-CoA measured after 6 hrs by TLC method; assay type: cell-based
# T1 sequence (O77759 whole entry): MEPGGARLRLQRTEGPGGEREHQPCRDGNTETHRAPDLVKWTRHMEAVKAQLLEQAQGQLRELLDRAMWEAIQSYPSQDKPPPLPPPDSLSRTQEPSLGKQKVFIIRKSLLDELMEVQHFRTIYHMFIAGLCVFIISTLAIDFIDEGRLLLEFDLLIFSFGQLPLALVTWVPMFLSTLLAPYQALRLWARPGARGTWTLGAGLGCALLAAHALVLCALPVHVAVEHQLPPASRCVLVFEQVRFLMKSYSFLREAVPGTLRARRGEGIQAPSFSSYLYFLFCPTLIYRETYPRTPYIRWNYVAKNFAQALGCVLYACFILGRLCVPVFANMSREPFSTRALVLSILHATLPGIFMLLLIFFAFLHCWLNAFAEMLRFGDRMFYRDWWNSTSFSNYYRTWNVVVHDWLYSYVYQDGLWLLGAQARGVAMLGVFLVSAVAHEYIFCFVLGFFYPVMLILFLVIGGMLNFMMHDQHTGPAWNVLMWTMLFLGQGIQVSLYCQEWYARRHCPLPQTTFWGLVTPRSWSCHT
# [6] = biological target: T2, Sterol O-acyltransferase 1 (Mus musculus) (UniProt Q61263); assay: Inhibition of ACAT1 in mouse N9 cells at 0.1 uM measured after 8 hrs by Lyso tracker staining based flow cytometry relative to control; assay type: cell-based
# T2 sequence (whole entry): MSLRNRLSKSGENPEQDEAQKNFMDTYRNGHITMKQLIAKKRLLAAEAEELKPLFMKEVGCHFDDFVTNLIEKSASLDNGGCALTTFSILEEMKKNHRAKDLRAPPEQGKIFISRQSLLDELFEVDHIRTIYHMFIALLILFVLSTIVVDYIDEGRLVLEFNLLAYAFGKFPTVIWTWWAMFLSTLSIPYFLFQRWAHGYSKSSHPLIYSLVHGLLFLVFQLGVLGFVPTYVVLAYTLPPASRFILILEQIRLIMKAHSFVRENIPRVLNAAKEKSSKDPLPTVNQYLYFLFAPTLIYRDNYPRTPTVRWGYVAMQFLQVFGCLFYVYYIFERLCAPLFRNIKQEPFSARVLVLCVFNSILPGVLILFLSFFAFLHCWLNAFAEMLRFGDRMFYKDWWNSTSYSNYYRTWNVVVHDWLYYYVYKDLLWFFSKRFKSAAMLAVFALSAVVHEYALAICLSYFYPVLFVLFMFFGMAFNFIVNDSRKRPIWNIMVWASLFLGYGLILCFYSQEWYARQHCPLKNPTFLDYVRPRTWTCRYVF
# [7] = biological target: T2, Sterol O-acyltransferase 1 (Mus musculus); assay: Inhibition of ACAT1 in mouse N9 cells assessed as increase in late endosomes/lysosomes volume measured after 8 hrs by Lyso tracker staining based flow cytometry relative to control; assay type: cell-based; settings: concentration not given here
# [8] = biological target: T2, Sterol O-acyltransferase 1 (Mus musculus); assay: Inhibition of ACAT1 in wild type mouse microglia assessed as increase in clearance of oligomeric amyloid beta at 1 uM pretreated for 24 hrs followed by oligomeric amyloid beta addition measured after 18 hrs by western blot analysis relative to control
# [9] = biological target: T2, Sterol O-acyltransferase 1 (Mus musculus); assay: Inhibition of ACAT1 in mouse N9 cells assessed as increase in TFEB target genes mRNA expression measured after 8 hrs by qPCR analysis; assay type: cell-based
# [10] = biological target: T2, Sterol O-acyltransferase 1 (Mus musculus); assay: Inhibition of ACAT1 in mouse N9 cells; assay type: cell-based
# [11] = biological target: T2, Sterol O-acyltransferase 1 (Mus musculus); assay: Inhibition of ACAT1 in mouse N9 cells assessed as increase in Cys-amyloid beta 1 to 42 uptake pretreated for 8 hrs followed by Cys-amyloid beta 1 to 42 addition measured after 3 hrs by flow cytometry relative to control; assay type: cell-based; set-up: scale not given: the % may be the effect or the level left
# [12] = biological target: T2, Sterol O-acyltransferase 1 (Mus musculus); assay: Inhibition of ACAT1 in mouse N9 cells assessed as increase in lysosome biogenesis by measuring Lyso tracker fluorescence measured after 8 hrs by Lyso tracker staining based flow cytometry; assay type: cell-based
# [13] = biological target: T2, Sterol O-acyltransferase 1 (Mus musculus); assay: Inhibition of ACAT1 in mouse N9 cells assessed as induction of autophagy by measuring LC3-2 at 0.1 uM by Western blot analysis; assay type: cell-based
# [14] = biological target: T2, Sterol O-acyltransferase 1 (Mus musculus); assay: Inhibition of ACAT1 in mouse N9 cells assessed as effect on […] by measuring p62 levels in presence of Torin-1 by Western blot analysis; assay type: cell-based
# [15] = biological target: T2, Sterol O-acyltransferase 1 (Mus musculus); assay: Inhibition of ACAT1 in TFEB knock-down mouse N9 cells assessed as autophagosome formation by measuring LC3-2 levels; assay type: cell-based
# [16] = biological target: T2, Sterol O-acyltransferase 1 (Mus musculus); assay: Inhibition of ACAT1 in mouse N9 cells assessed as reduction in oligomeric amyloid beta 1 to 42 pretreated for 24 hrs followed by oligomeric amyloid beta 1 to 42 addition measured after 12 hrs by Western blot analysis relative to control; assay type: cell-based; settings: concentration not given here
# [17] = biological target: T2, Sterol O-acyltransferase 1 (Mus musculus); assay: Inhibition of ACAT1 in mouse N9 cells assessed as effect on autophagosome formation by measuring LC3-2 levels in presence of squalene synthase inhibitor CP-340868; assay type: cell-based
# [18] = biological target: T2, Sterol O-acyltransferase 1 (Mus musculus); assay: Inhibition of ACAT1 in mouse N9 cells assessed as increase in autophagic flux by measuring LC3-2 levels in presence of Torin-1 by Western blot analysis; assay type: cell-based
# [19] = biological target: T3, Sterol O-acyltransferase 2 (Homo sapiens, UniProt O75908); assay: Inhibition of ACAT2 (unknown origin)
# T3 sequence (O75908 whole entry): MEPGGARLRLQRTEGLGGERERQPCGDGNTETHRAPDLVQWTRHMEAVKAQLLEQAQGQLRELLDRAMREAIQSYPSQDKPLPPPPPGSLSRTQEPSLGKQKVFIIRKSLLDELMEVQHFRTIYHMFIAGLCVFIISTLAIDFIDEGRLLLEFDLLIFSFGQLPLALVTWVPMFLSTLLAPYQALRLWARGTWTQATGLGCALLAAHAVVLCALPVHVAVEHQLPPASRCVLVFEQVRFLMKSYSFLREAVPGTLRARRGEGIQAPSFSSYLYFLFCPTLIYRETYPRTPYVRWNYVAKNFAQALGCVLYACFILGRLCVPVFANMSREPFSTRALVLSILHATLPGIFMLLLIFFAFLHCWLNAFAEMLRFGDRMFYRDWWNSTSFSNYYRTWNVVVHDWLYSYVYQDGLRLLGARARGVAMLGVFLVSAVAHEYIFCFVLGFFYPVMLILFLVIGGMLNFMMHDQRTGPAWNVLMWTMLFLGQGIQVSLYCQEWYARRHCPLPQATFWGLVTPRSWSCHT
# Homo sapiens = species: Homo sapiens; assay: Selectivity ratio of IC50 for human ACAT2 to IC50 for human ACAT1
# [20] = biological target: T4, Sterol O-acyltransferase 1 (Homo sapiens, UniProt P35610); assay: Inhibition of human ACAT1
# T4 sequence (P35610 whole entry): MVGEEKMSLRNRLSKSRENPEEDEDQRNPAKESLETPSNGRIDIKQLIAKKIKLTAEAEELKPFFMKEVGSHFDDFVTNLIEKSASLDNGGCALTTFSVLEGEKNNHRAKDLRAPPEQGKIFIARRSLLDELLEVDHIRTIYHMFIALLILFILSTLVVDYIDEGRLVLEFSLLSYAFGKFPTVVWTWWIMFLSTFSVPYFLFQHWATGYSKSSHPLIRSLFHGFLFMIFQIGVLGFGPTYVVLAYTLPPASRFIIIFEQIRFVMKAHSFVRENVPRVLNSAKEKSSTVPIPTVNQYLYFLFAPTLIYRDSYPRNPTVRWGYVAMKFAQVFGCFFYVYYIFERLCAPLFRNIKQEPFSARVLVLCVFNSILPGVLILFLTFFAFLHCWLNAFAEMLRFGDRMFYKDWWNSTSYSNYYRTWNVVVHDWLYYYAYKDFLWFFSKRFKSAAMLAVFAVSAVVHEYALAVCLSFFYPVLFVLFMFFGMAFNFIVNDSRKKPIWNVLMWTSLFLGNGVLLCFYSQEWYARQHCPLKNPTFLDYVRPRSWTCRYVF
# [21] = biological target: T3, Sterol O-acyltransferase 2; assay: Inhibition of human ACAT2
# [22] = biological target: T1, Sterol O-acyltransferase 2; assay: Inhibition of African green monkey ACAT2 expressed in mouse AC29 cells assessed as reduction in esterification of NBD-cholesterol preincubated for 20 mins followed by NBD-cholesterol addition measured after 6 hrs by high-performance TLC method; assay type: cell-based
# [23] = biological target: T5, Sterol O-acyltransferase 2 (Homo sapiens) (UniProt O75908); assay: Inhibition of human ACAT2 at 1 mM
# T5 sequence (whole entry): T3 sequence (O75908 whole entry)
smiles,measurement,setting,value
CCCCCCCC[C@H](SCCCCCC)C(=O)Nc1c(SC)cc(C)nc1SC,inhibition (INH),Mus musculus [1],88 - 99%
same,inhibition (INH),Mus musculus [2],86%
same,inhibition (INH),Mus musculus [3],83 - 96%
same,inhibition (INH),Mus musculus [4],34%
CCCC[C@H](C)[C@@H]1CC(=O)N[C@@H](Cc2ccccc2)C(=O)N[C@@H](C)C(=O)N[C@H](CC(C)C)C(=O)O1 [BEAUVERIOLIDE I],IC50,[5],20 µM
CSc1cc(C)nc(SC)c1NC(=O)CN1CCN(CCSc2nc3ccccc3[nH]2)CC1,inhibition,[6],80%
same,inhibition,[7],27%
same,inhibition,[8],< 65%
same,inhibition,[9],Active
same,inhibition,[10],Dose-dependent effect
same,Activity,[11],23%
same,inhibition,[12],Active
same,inhibition,[13],Active
same,inhibition,[14],Active
same,inhibition,[15],Active
same,inhibition,[16],58%
same,inhibition,[17],Active
same,inhibition,[18],Active
CCCCCCCCCCCCS[C@H](C(=O)Nc1cc(C)c(O)c(C)c1C)c1ccccc1 [EFLUCIMIBE],IC50,[19],0.11 µM
CCOC(=O)OC(=O)OCC [DIETHYL PYROCARBONATE],Ratio IC50,Homo sapiens,4
same,IC50,[20],44 µM
same,IC50,[21],170 µM
CC(C)c1cccc(C(C)C)c1NC(=O)CC(=O)C(Cc1ccccc1)Cc1ccc(OC(=O)CCCCCCN2CCCCCC2=O)cc1 (centres undefined),IC50,[22],0.53 µM
COc1ccc([C@@H](O)[C@@H](C)Oc2ccc([C@H]3O[C@H](c4ccc(O[C@H](C)[C@H](O)c5ccc6c(c5)OCO6)c(OC)c4)[C@H](C)[C@H]3C)cc2OC)cc1OC,inhibition,[23],32%
